Like-named read-outs stand apart in the source and are kept apart here.
Tests used:
Assay in all cases: Ca2+ mobilization, GFP-apoaequorin luminescence in CHO-K1 with Gα-16
Assay type in all cases: cell-based
[1] = target: T1, S. kowalevskii α2-adrenergic (Saccoglossus kowalevskii, UniProt A0ABM0GQ86); conditions: read-out: Epinephrine
T1 construct: gene LOC100373264; full-length in pcDNA3.1(+), expressed in CHO-K1 with Gα-16 and GFP-apoaequorin
T1 sequence (A0ABM0GQ86 1-464): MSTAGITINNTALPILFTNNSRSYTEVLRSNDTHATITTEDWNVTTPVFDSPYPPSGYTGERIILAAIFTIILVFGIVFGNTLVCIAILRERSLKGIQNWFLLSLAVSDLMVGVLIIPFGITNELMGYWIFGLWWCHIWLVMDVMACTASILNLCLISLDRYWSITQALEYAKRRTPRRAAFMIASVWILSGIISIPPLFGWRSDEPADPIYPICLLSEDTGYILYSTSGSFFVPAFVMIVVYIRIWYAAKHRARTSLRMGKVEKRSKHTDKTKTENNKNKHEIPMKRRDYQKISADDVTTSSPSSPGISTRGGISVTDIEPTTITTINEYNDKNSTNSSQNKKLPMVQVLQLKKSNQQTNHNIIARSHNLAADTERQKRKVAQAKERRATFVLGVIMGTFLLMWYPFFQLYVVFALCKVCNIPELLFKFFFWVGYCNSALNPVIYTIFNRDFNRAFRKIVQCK
Source text: Ca2+ mobilization, GFP-apoaequorin luminescence in CHO-K1 with Gα-16 on S. kowalevskii α2-adrenergic

[2] = target: T2, P. caudatus α2-adrenergic (Priapulus caudatus, UniProt A0ABM1F9E8)
T2 construct: gene LOC106820961; full-length in pcDNA3.1(+), expressed in CHO-K1 with Gα-16 and GFP-apoaequorin
T2 sequence (A0ABM1F9E8 1-470): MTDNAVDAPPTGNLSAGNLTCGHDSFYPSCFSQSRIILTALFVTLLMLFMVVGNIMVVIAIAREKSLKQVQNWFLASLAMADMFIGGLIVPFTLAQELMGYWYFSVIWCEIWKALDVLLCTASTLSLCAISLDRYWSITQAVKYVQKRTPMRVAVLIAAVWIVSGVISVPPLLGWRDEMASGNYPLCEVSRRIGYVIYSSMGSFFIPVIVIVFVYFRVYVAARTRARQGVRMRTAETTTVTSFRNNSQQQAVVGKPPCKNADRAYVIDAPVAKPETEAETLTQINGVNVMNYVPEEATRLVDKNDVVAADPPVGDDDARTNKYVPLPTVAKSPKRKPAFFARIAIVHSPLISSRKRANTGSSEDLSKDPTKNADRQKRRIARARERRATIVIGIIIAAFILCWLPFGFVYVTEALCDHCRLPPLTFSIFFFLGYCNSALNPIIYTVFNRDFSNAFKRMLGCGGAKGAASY
Source text: Ca2+ mobilization, GFP-apoaequorin luminescence in CHO-K1 with Gα-16 on P. caudatus α2-adrenergic

[3] = target: T3, P. dumerilii α2-adrenergic receptor (Platynereis dumerilii, UniProt A0A1J0F5X6)
T3 construct: full-length in pcDNA3.1(+), expressed in CHO-K1 with Gα-16 and GFP-apoaequorin
T3 sequence (A0A1J0F5X6 1-619): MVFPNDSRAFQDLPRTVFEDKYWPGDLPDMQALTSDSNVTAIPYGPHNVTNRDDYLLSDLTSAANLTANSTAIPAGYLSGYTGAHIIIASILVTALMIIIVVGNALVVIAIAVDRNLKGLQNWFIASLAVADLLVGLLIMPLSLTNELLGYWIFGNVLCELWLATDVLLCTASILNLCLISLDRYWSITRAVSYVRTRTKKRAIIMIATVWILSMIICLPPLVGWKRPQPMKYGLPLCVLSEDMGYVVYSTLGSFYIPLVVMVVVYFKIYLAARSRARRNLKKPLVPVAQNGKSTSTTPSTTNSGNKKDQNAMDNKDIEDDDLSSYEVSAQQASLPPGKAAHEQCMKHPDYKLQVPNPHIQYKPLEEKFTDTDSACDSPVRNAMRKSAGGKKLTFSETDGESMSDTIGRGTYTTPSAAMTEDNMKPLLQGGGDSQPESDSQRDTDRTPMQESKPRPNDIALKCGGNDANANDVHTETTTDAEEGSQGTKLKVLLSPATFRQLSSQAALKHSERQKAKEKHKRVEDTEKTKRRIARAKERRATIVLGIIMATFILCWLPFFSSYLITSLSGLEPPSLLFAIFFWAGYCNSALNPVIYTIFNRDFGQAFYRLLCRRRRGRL
Source text: Ca2+ mobilization, GFP-apoaequorin luminescence in CHO-K1 with Gα-16 on P. dumerilii α2-adrenergic receptor

[4] = target: T4, Platynereis dumerilii α1-adrenergic receptor (Platynereis dumerilii, UniProt A0A1J0F5Z2); conditions: read-out: Norepinephrine
T4 construct: full-length in pcDNA3.1(+), expressed in CHO-K1 with Gα-16 and GFP-apoaequorin
T4 sequence (A0A1J0F5Z2 1-651): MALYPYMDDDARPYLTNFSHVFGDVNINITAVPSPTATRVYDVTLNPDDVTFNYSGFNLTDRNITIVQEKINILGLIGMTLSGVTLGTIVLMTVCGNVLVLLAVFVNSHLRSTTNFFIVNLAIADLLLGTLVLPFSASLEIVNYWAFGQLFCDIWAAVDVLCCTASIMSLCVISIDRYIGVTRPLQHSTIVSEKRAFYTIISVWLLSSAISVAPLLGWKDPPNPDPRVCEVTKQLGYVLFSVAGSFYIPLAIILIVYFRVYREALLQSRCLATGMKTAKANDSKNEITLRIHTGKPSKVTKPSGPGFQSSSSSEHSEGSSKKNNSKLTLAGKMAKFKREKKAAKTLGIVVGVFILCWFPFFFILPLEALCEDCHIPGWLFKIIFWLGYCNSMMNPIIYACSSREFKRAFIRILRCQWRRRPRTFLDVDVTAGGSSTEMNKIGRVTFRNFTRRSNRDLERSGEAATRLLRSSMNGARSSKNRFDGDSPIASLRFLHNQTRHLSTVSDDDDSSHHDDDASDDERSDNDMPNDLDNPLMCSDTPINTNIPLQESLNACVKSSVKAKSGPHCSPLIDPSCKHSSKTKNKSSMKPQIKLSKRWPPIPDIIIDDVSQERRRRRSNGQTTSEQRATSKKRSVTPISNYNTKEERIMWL
Source text: Ca2+ mobilization, GFP-apoaequorin luminescence in CHO-K1 with Gα-16 on Platynereis dumerilii α1-adrenergic receptor

[5] = target: T5, S. kowalevskii α1-adrenergic (Saccoglossus kowalevskii, UniProt A0A0U2M149); conditions: read-out: Norepinephrine
T5 construct: full-length in pcDNA3.1(+), expressed in CHO-K1 with Gα-16 and GFP-apoaequorin
T5 sequence (A0A0U2M149 1-774): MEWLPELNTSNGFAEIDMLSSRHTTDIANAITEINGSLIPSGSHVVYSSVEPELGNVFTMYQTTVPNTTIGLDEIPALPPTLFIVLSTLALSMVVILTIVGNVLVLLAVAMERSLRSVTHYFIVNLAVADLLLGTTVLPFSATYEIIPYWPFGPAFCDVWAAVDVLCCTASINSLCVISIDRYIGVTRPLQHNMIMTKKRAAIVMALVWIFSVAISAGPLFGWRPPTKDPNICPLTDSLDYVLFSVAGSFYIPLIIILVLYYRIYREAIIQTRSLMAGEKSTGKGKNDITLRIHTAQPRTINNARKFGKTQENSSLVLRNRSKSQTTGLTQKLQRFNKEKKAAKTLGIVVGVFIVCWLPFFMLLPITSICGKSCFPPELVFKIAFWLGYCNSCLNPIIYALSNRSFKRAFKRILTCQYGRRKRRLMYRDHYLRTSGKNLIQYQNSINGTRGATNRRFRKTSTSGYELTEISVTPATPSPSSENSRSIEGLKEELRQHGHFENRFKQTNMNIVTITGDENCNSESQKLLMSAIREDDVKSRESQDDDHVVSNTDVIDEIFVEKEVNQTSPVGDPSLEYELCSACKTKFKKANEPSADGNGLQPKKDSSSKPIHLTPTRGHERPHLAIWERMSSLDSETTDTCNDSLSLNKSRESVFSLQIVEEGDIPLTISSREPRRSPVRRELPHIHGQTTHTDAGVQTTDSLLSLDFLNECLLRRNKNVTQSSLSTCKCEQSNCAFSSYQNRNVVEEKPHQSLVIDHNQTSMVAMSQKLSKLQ
Source text: Ca2+ mobilization, GFP-apoaequorin luminescence in CHO-K1 with Gα-16 on S. kowalevskii α1-adrenergic

[6] = target: T6, Priapulus caudatus α1-adrenergic (Priapulus caudatus, UniProt A0ABM1DSS1); conditions: read-out: Norepinephrine
T6 construct: gene LOC106805782; full-length in pcDNA3.1(+), expressed in CHO-K1 with Gα-16 and GFP-apoaequorin
T6 sequence (A0ABM1DSS1 1-550): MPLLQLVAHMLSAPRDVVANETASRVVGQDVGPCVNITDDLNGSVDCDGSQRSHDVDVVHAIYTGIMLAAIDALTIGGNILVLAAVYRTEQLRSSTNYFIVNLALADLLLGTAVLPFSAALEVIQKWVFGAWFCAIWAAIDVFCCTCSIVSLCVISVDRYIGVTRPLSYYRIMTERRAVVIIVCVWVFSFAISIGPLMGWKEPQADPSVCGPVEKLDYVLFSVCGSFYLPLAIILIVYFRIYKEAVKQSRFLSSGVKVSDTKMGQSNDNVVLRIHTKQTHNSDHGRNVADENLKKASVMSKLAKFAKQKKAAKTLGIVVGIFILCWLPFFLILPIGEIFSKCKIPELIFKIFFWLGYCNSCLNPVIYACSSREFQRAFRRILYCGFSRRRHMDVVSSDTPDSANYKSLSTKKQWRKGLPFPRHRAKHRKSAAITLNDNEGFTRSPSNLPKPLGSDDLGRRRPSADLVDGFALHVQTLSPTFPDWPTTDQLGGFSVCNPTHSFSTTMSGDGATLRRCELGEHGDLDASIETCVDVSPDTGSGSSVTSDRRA
Source text: Ca2+ mobilization, GFP-apoaequorin luminescence in CHO-K1 with Gα-16 on Priapulus caudatus α1-adrenergic

CNC[C@H](O)c1ccc(O)c(O)c1 [epinephrine]
EC50 [1]: 2.3 nM | EC50 ([2]; read-out: Epinephrine): 450 nM | EC50 ([3]; read-out: Epinephrine): 11 nM

NC[C@H](O)c1ccc(O)c(O)c1 [norepinephrine]
EC50 [4]: 210 nM | EC50 [5]: 17 nM | EC50 [6]: 7.5 nM | EC50 ([2]; read-out: Norepinephrine): 470 nM | EC50 ([3]; read-out: Norepinephrine): 8.2 nM

Source: article PMC5282848, “Ancient coexistence of norepinephrine, tyramine, and octopamine signaling in bilaterians” (BMC Biology, 2017)
